Measurements: patent US8008487B2, “Substituted thieno[2,3-D]pyrimidines as fungicides” (priority 2004, dated 2011)

Key:
Type in all cases: in vivo
Cochliobolus sativus = assay: Spot Blotch of Wheat (COCHSA), whole-plant fungicide test; settings: Bipolaris sorokiniana, foliar, 24 h, 200 ppm on foliage, one-day protectant test, read-out: COCHSA percent control of disease
Protocol: The activity of the compounds as effective fungicides was determined by applying the compounds to plants and observing control of fungal disease. The compounds were formulated at 200 ppm in 10 vol. percent acetone plus 90 vol. percent Triton X water (deionized water 99.99 wt. percent+0.01 wt. percent Triton X100), giving a “formulated test compound.” In a few cases, compounds were formulated at 100, 75 or 8.3 ppm rather than 200 ppm in 10 vol. percent acetone plus 90 vol. percent Triton X water (deionized water 99.99 wt. percent+0.01 wt. percent Triton X100), giving a ‘formulated test compound’. The compounds were tested for ability to control plant diseases in a 1-day protectant test (1DP) or a 2-day curative test (2DC). Formulated test compounds were applied to plants using a turn table sprayer fitted with two opposing air atomization nozzles which delivered approximately 1500 L/ha of spray volume. Plants were inoculated with spores of the fungus the next day (1DP), then incubated in an environment conducive to disease development. In a few cases, the compounds were tested for ability to control plant disease in a two-day curative test. Plants were inoculated with spores of the fungus two days prior to compound application, and incubated in an environment conducive to disease development both before and after compound application (2DC). For all types of tests, disease severity was evaluated 4 to 28 days later, depending on the speed of disease development.
Each pot contained 3-8 seedlings. These plants were sprayed until wet with the formulated test compound. On the following day, the leaves were inoculated with an aqueous spore suspension of Cochliobolus sativus and the plants were kept in high humidity for one to two days to permit spores to germinate and infect the leaf. The plants were then transferred to a greenhouse until disease developed on untreated control plants.
The following table presents the activity of typical compounds of the present invention when evaluated in these experiments. The effectiveness of the test compounds in controlling disease was determined by assessing the severity of disease on treated plants, then converting the severity to percent control based on the level of disease on untreated, inoculated plants.
TABLE 4: Activity of compounds as fungicides. Data are the level at which the given disease was controlled when the given compound was applied to the foliage of the plant at 200 ppm. In a few cases (noted in the table) the compound was applied to the plant at 100, 75 or 8.3 ppm. The plant was inoculated with the fungus one day after treatment. In a few cases (noted in the table) the plant was inoculated with the fungus two days before treatment.

Colletotricum lagenarium = assay: Cucumber Anthracnose (COLLLA), whole-plant fungicide test; settings: 200 ppm on foliage, one-day protectant test; for pest or weed control at 200 ppm: Cucumis sativus, foliar, 24 h, read-out: COLLLA percent control of disease
Erysiphe cichoracaerum = assay: Cucumber Powdery Mildew (ERYSCI), whole-plant fungicide test; settings: Erysiphe, foliar, 24 h, 200 ppm on foliage, one-day protectant test, read-out: ERYSCI percent control of disease
[1] = tested on: Erysiphe graminis f. sp. tritici; assay: Powdery Mildew of Wheat (ERYSGT), whole-plant fungicide test; settings: Blumeria graminis, foliar, 24 h, 200 ppm on foliage, one-day protectant test, read-out: ERYSGT percent control of disease
Leptosphaeria nodorum = assay: Glume Blotch of Wheat (LEPTNO), whole-plant fungicide test; settings: 200 ppm on foliage, one-day protectant test; for pest or weed control at 200 ppm: Parastagonospora nodorum, foliar, 24 h, read-out: LEPTNO percent control of disease
Phytophthora infestans = assay: whole plant or invertebrate; settings: for pest or weed control at 200 ppm: foliar, read-out: PHYTIN percent control of disease, 200 ppm on foliage, tomato, one-day protectant test
[2] = tested on: Puccinia recondita tritici; assay: Leaf Rust of Wheat (PUCCRT), whole-plant fungicide test; settings: 200 ppm on foliage, one-day protectant test; for pest or weed control at 200 ppm: Puccinia recondita, foliar, 24 h, read-out: PUCCRT percent control of disease
Magnaporthe grisea = assay: whole plant or invertebrate; settings: for pest or weed control at 200 ppm: Pyricularia oryzae, in Oryza sativa, foliar, 24 h, read-out: PYRIOR percent control of disease, 200 ppm on foliage, rice, one-day protectant test
Septoria tritici = assay: Speckled Leaf Blotch of Wheat (SEPTTR), whole-plant fungicide test; settings: Zymoseptoria tritici, foliar, 24 h, 200 ppm on foliage, one-day protectant test, read-out: SEPTTR percent control of disease
[3] = Phytophthora infestans, in Solanum lycopersicum, 24 h

Row | Structure (SMILES) | pest or weed control at 200 ppm (Cochliobolus sativus) [%] | pest or weed control at 200 ppm (Colletotricum lagenarium) [%] | pest or weed control at 200 ppm (Erysiphe cichoracaerum) [%] | pest or weed control at 200 ppm [1] [%] | pest or weed control at 200 ppm (Leptosphaeria nodorum) [%] | pest or weed control at 200 ppm (Phytophthora infestans; [3]) [%] | pest or weed control at 200 ppm [2] [%] | pest or weed control at 200 ppm (Magnaporthe grisea) [%] | pest or weed control at 200 ppm (Septoria tritici) [%] | pest or weed control at 100 ppm (Phytophthora infestans; Phytophthora infestans, in Solanum lycopersicum, 24 h, read-out: PHYTIN percent control of disease, 100 ppm (footnote a), tomato, one-day protectant test) [%] | COLLLA percent control of disease (Colletotricum lagenarium) | LEPTNO percent control of disease (Leptosphaeria nodorum) | PHYTIN percent control of disease (Phytophthora infestans; 200 ppm on foliage, tomato, one-day protectant test) | PUCCRT percent control of disease [2] | PYRIOR percent control of disease (Magnaporthe grisea; 200 ppm on foliage, rice, one-day protectant test)
1 | COc1ccc(C(C)Nc2ncnc3scc(Br)c23)cn1 (stereo not shown) [Compound 45, (5-Bromothieno[2,3-d]pyrimidin-4-yl)-[1-(2-methoxypyridin-5-yl)ethyl]amine] | 0 to 49 | 0 to 49 | 80 to 100 | 80 to 100 | 50 to 79 | 80 to 100 | 80 to 100 | 80 to 100 | 50 to 79 | – | – | – | – | – | –
2 | CC(Nc1ncnc2scc(Cl)c12)c1ccc(C(F)(F)F)nc1 (stereo not shown) [Compound 44] | 50 to 79 | 0 to 49 | 80 to 100 | 0 to 49 | 50 to 79 | 50 to 79 | 80 to 100 | 80 to 100 | 0 to 49 | – | – | – | – | – | –
3 | CSc1ccc(C(C)Nc2ncnc3scc(Cl)c23)cc1 (stereo not shown) [Compound 42] | 0 to 49 | 0 to 49 | 80 to 100 | 50 to 79 | 50 to 79 | 0 to 49 | 80 to 100 | 80 to 100 | 80 to 100 | – | – | – | – | – | –
4 | CC(Nc1ncnc2scc(Cl)c12)c1cnco1 (stereo not shown) [Compound 21] | 0 to 49 | – | 50 to 79 | 0 to 49 | 0 to 49 | – | 80 to 100 | 80 to 100 | 50 to 79 | – | – | – | – | – | –
5 | CC(Nc1ncnc2scc(Cl)c12)c1nccs1 (stereo not shown) [Compound 22] | 0 to 49 | – | 80 to 100 | 0 to 49 | 0 to 49 | – | 80 to 100 | 80 to 100 | 50 to 79 | – | – | – | – | – | –
6 | COc1cnc(C(C)Nc2ncnc3scc(Cl)c23)nc1 (stereo not shown) [Compound 36] | 0 to 49 | 0 to 49 | 0 to 49 | 0 to 49 | 0 to 49 | 80 to 100 | 80 to 100 | 80 to 100 | 50 to 79 | – | – | – | – | – | –
7 | CC(Nc1ncnc2scc(Cl)c12)c1nc2ccccc2s1 (stereo not shown) [Compound 41] | 50 to 79 | 0 to 49 | 80 to 100 | 80 to 100 | 80 to 100 | 80 to 100 | 80 to 100 | 80 to 100 | 80 to 100 | – | – | – | – | – | –
8 | CC(Nc1ncnc2scc(Cl)c12)c1ccc(OCc2ccccc2)cc1 (stereo not shown) [Compound 2] | 0 to 49 | 0 to 49 | – | 80 to 100 | 80 to 100 | 80 to 100 | 80 to 100 | 80 to 100 | 80 to 100 | – | – | – | – | – | –
9 | COCc1ccc(C(C)Nc2ncnc3scc(Cl)c23)cc1 (stereo not shown) [Compound 14] | 0 to 49 | 80 to 100 | 80 to 100 | 80 to 100 | 80 to 100 | 80 to 100 | 80 to 100 | 80 to 100 | 80 to 100 | – | – | – | – | – | –
10 | Clc1csc2ncnc(NCCc3ccc(OCc4ccccc4)cc3)c12 [Compound 3] | 0 to 49 | 0 to 49 | – | 80 to 100 | 80 to 100 | 80 to 100 | 80 to 100 | 80 to 100 | 80 to 100 | – | – | – | – | – | –
11 | CC(C)c1ccc(C(C)Nc2ncnc3scc(Cl)c23)nc1 (stereo not shown) [Compound 34] | 0 to 49 | 50 to 79 | 80 to 100 | 80 to 100 | 80 to 100 | 0 to 49 | 80 to 100 | 80 to 100 | 50 to 79 | – | – | – | – | – | –
12 | CC(C)c1ccc(CCNc2ncnc3scc(Cl)c23)cc1 [Compound 7] | 50 to 79 | 0 to 49 | 80 to 100 | 80 to 100 | 50 to 79 | – | 80 to 100 | 80 to 100 | 50 to 79 | 80 to 100 | – | – | – | – | –
13 | COC(=O)c1ccc(CNc2ncnc3scc(Cl)c23)cc1 [Compound 20] | 0 to 49 | – | 0 to 49 | 0 to 49 | 0 to 49 | – | 0 to 49 | 0 to 49 | 50 to 79 | – | – | – | – | – | –
14 | FC(F)(F)Oc1ccc(COc2ccc(CCNc3ncnc4scc(Cl)c34)cc2)cc1 [Compound 6] | – | – | 80 to 100 | 0 to 49 | 50 to 79 | – | 80 to 100 | 50 to 79 | 50 to 79 | – | – | – | – | – | –
15 | CC(Nc1ncnc2scc(Cl)c12)c1ccc(Cl)nc1 (stereo not shown) [Compound 28] | 0 to 49 | – | – | 0 to 49 | 80 to 100 | – | 80 to 100 | 80 to 100 | 80 to 100 | – | – | – | – | – | –
16 | Clc1csc2ncnc(NC3CCCc4ccccc43)c12 (stereo not shown) [Compound 10] | – | 0 to 49 | 0 to 49 | 0 to 49 | 0 to 49 | 0 to 49 | 0 to 49 | 50 to 79 | 0 to 49 | – | – | – | – | – | –
17 | CC(Nc1ncnc2scc(Cl)c12)c1ccc(OCc2ccc(OC(F)(F)F)cc2)cc1 (stereo not shown) [Compound 5] | – | 0 to 49 | 80 to 100 | 50 to 79 | 50 to 79 | – | 80 to 100 | 50 to 79 | 80 to 100 | – | – | – | – | – | –
18 | CC(C)c1ccc(C(C)Nc2ncnc3scc(Cl)c23)cc1 (stereo not shown) [Compound 1, (5-Chlorothieno[2,3-d]pyrimidin-4-yl)-[1-(4-isopropylphenyl)ethyl]amine] | 0 to 49 | – | – | 80 to 100 | – | – | – | – | – | – | * (* is 0-49 percent control of disease) | *** (*** is 80-100 percent control of disease) | ** (** is 50-79 percent control of disease) | *** (*** is 80-100 percent control of disease) | *** (*** is 80-100 percent control of disease)
19 | Clc1csc2ncnc(NC3CCc4ccccc43)c12 (stereo not shown) [Compound 8] | – | 0 to 49 | 0 to 49 | 0 to 49 | 0 to 49 | 0 to 49 | 50 to 79 | 50 to 79 | 0 to 49 | – | – | – | – | – | –
